Several values for one entry are separate records, joined by “and”; a condition that tells them apart may be missing. Identical values can stand only once. Like-named read-outs stand apart in the source and are kept apart here.
Assays:
[1] = Toxicity of metabolite, method not described
[2] = tested on: simian immunodeficiency virus (SIV); assay: Viral load by RT-PCR in SIV-infected rhesus macaques; format: in vivo
Method: (§1) Two SIV-infected rhesus macaques were treated with 300 mg/kg of the compound of formula (I) once daily via oral gavage. Viral load before treatment and after 6 months of treatment were measured by RT-PCR. Viral infectivity was determined by measuring the amount of p27 Gag (in pg/mL) in a viral infectivity assay wherein virus isolated from the animals was used to infect CEMx174 cells, followed by ELISA. Viral samples were diluted 1:1000 prior to assay. The CD4 count for each monkey was measured after 6 months.

[3] = tested on: simian immunodeficiency virus (SIV); assay: Viral infectivity assay: virus isolated from the animals used to infect CEMx174 cells, p27 Gag ELISA; format: in vivo, rhesus macaques
Method: as §1

[4] = CD4 count in SIV-infected rhesus macaques; format: in vivo
Method: as §1

[5] = Maximum tolerated dose and dose range finding study in rats; format: in vivo
Method: The maximum tolerated dose in rats of the compound of formula (I) was determined to be greater than 2 g/day.

[6] = Pharmacokinetics in cynomolgus macaques; format: in vivo; settings: 300 mg/kg p.o. oral gavage
Method: The compound of formula (I) was administered to cynomolgus macaques at a dose of 300 mg/kg p.o. via oral gavage.

[7] = tested on: CXCR4 Tropic Clade B HIV-192HT599; assay: Anti-HIV activity in human PBMCs, reverse transcriptase in culture supernatants; format: cell-based; settings: PBMC, 7 days in culture
Method: (§2) PHA-P stimulated PBMCs from three donors were pooled together and resuspended in fresh tissue culture medium at 1×10^6 cells/mL and plated in the interior wells of a 96 well round bottom microplate at 50 μL/well. A 100 μL volume of 9 concentrations of the compound serially diluted were transferred to the round bottom 96 well plate containing the cells in triplicate. 50 μL of HIV-1 at a predetermined dilution was added. Each plate contained cell control wells and virus control wells in parallel with the experimental wells. After 7 days in culture, efficacy was evaluated by measuring the reverse transcriptase in the culture supernatants and the cells were stained with the tetrazolium dye XTT to evaluate cytotoxicity.

[8] = Cytotoxicity in human PBMCs, XTT staining; format: cell-based; settings: human, PHA-P stimulated PBMCs pooled from three donors; Incubation Time 0 hours; 7 days in culture; read-out: TC50
Method: as §2

PBMCs = assay: Cytotoxicity in human PBMCs, XTT staining; format: cell-based; settings: 7 days in culture, read-out: TC50 (the source's name)
Method: as §2

## CSc1ccccc1C(=O)NCCC(N)=O [Compound 3]
[1]
  toxicity: non-toxic

## Cn1cnc([N+](=O)[O-])c1Sc1ccccc1C(=O)NCCC(N)=O [compound of formula (I), N-(3-amino-3-oxopropyl)-2-[(1-methyl-4-nitro-1H-imidazol-5-yl)thio]benzamide]
[2]; 300 mg/kg once daily oral gavage, after 6 months of treatment, RT-PCR
  Treated Viral Load: 2.86 × 10^4 and 1.73 × 10^3
[2]; 300 mg/kg p.o. daily over 6 months, versus before treatment
  reduction in viral load: approximately one
[3]; 300 mg/kg once daily oral gavage, 6 months, viral samples diluted 1:1000, CEMx174 cells, ELISA
  Treated Viral Infectivity (p27 Gag): <0.1 pg/mL
[3]; 300 mg/kg p.o. daily over 6 months
  viral infectivity of SIV from treated animals compared with before treatment: significantly decreased
[4]; 300 mg/kg once daily oral gavage, after 6 months
  Treated CD4 Count: 365 and 363
[4]; after 6 months of 300 mg/kg p.o. daily
  CD4 counts, assessment: deemed normal
[5]; 2 g/kg p.o., once per day for 14 days
  adverse clinical outcomes in dose range finding study: did not show adverse clinical outcomes
[5]; rat, in vivo, oral, 2 g/kg
  MTD at 14 days: > 2000 mg/kg/day
[6]
  metabolism in blood: converted to two major metabolites
[6]; cynomolgus monkey, blood
  AUC: 5780 ng·h/mL
  half-life: 7.6 h
[7]; Incubation Time 0 hours
  EC50: 3.23 µM
[7]; Incubation Time 2 hours
  EC50: 7.12 µM
[7]; Incubation Time 8 hours
  EC50: 5.18 µM
[7]; Incubation Time 24 hours
  EC50: 4.45 µM
[8]
  CC50 at 7 days: > 100 µM
PBMCs; Incubation Time 2 hours
  CC50: > 100 µM
PBMCs; Incubation Time 8 hours
  CC50: > 100 µM
PBMCs; Incubation Time 24 hours
  CC50: > 100 µM
